Test results: patent publication US6630494B2, “Phenyl-substituted 1,4-dihydropyridines” (Bayer Aktiengesellschaft, priority 1983, dated 2003)

How the values were obtained:
[1] = biological target: T1, DHP (PN-200 110) binding sites in rats' heart (Rattus norvegicus, UniProt P22002); assay: Binding affinity to DHP (PN 200-110) binding sites in rats' heart; conditions: PN 200-110 (DHP) binding sites
T1 construct: from tissue; host or cells: rat heart
Method: (§1) The binding affinities to PN 200-110 binding sites in rats' brains or rats' hearts are determined according to Rampe, D. R., Rutledge, A., Janis, R. A., Triggle, D. J.: Can. Journ. Physiol. Pharmacol. 65, (1987) 1452.
(§2) This selectivity exceeds that of the known cerebrally active Ca^2+-antagonistic dihydropyridines nimodipine and nicardipine. This is seen e.g. in the comparison of the binding affinities to DHP (PN-200 110) binding sites in rats' brain and rats' heart [cf. Rampe, D. R., Rutledge, A., Janis, R. A., Triggle, D. J., Can. Journ. Physiol. Pharmacol. 65 (1987), 1452].

[2] = tested on: DHP (PN-200 110) binding sites in rats' brain; assay: Binding affinity to DHP (PN 200-110) binding sites in rats' brain; set-up: species or system rat; conditions: comparison of binding affinities rats' brain vs rats' heart (Ki heart / Ki brain)
Method: as §1, §2

T1 sequence (P22002 whole entry, other chains not shown): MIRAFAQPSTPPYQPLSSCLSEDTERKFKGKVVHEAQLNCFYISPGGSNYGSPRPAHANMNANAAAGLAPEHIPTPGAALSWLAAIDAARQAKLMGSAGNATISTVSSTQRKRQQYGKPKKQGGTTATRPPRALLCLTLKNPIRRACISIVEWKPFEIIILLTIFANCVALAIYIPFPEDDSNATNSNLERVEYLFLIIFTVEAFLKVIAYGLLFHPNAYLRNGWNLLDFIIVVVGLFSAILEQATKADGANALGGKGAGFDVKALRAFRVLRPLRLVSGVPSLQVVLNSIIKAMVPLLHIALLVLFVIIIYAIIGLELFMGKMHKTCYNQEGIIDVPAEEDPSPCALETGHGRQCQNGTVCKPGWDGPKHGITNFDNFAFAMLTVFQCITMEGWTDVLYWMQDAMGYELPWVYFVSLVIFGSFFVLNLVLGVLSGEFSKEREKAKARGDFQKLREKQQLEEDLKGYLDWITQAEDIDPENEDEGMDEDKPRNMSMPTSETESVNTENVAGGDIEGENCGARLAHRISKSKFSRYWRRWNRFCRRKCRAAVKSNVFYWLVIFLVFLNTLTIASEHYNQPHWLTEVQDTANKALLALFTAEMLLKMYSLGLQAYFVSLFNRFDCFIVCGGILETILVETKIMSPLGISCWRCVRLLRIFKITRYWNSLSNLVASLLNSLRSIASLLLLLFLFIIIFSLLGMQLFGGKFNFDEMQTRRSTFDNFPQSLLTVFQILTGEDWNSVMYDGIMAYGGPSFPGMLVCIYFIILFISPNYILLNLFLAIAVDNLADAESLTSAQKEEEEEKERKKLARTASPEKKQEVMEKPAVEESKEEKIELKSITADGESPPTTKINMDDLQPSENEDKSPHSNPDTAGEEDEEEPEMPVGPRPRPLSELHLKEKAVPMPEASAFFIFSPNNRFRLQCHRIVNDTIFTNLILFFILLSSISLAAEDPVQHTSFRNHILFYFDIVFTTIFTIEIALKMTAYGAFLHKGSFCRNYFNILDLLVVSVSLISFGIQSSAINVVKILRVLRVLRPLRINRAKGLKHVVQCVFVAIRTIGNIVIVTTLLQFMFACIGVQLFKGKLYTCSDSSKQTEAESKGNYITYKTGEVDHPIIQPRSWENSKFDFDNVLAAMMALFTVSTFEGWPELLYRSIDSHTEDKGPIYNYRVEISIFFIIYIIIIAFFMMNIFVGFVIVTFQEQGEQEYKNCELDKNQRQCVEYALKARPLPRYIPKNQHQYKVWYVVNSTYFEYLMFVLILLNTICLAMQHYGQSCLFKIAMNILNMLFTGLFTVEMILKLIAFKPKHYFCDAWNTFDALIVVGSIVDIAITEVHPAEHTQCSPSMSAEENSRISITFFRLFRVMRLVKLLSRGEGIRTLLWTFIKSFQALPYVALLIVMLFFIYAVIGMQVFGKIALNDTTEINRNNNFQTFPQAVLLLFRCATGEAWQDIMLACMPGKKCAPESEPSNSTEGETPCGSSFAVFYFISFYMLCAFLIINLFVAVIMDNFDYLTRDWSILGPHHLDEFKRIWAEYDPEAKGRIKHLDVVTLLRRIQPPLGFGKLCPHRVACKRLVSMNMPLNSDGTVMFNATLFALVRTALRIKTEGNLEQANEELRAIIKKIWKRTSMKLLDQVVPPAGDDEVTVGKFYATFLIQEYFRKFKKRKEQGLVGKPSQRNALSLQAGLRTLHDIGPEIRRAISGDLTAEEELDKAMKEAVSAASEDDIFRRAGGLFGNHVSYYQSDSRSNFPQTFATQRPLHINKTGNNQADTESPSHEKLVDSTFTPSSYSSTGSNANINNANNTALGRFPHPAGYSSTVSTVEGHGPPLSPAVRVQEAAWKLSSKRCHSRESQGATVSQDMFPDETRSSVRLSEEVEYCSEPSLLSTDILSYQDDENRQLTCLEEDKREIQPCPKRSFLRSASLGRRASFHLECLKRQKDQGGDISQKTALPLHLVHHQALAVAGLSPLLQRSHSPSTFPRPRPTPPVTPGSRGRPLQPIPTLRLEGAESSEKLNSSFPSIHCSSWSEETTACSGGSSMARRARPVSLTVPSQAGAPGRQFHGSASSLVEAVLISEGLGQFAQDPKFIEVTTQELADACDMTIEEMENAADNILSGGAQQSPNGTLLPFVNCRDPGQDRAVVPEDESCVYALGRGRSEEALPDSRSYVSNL
T1 sequence (P54290 25-944 partner limits assumed, other chains not shown): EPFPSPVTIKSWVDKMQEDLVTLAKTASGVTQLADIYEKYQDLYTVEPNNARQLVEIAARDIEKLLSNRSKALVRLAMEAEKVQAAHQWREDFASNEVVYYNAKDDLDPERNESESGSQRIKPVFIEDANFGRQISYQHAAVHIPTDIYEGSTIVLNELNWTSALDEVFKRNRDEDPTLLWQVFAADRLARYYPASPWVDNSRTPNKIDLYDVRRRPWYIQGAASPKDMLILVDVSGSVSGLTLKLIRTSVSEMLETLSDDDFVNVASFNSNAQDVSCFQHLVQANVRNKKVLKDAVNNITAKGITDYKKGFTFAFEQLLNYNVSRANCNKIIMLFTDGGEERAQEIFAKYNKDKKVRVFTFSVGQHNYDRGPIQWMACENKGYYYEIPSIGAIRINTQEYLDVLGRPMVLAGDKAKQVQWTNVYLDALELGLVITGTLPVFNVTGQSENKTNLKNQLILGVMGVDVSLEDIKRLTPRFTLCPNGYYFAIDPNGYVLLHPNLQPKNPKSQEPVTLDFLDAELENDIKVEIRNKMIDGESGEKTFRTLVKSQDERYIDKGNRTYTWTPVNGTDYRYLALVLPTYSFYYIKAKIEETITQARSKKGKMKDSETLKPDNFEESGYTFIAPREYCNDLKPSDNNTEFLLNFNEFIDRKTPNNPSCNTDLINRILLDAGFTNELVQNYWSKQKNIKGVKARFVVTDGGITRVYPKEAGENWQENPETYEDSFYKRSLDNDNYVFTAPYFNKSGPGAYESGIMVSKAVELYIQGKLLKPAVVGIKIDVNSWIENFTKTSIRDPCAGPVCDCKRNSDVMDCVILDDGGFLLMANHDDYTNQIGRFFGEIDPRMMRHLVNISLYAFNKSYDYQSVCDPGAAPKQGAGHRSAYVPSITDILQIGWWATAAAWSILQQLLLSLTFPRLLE
T1 sequence (P54290 945-1091 partner limits assumed, other chains not shown): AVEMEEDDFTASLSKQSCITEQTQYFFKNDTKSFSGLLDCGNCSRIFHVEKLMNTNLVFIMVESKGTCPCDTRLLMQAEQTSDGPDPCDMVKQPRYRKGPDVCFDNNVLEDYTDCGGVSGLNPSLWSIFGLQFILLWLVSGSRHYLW

melting point	Ki [1]	Selectivity [2]	Compound
57 to 59 °C			COCCOC(=O)C1=C(C)NC(C)=C(C(=O)OC(C)C)C1c1c(F)cccc1Cl (racemic) [Example 3, (±) isopropyl 2-methoxyethyl 4-(2-chloro-6-fluorophenyl)-1,4-dihydro-2,6-dimethylpyridine-3,5-dicarboxylate]
119 to 120 °C			COCCOC(=O)C1=C(C)NC(C)=C(C(=O)OC(C)C)C1c1c(F)cccc1F (racemic) [Example 6, (±) isopropyl 2-methoxyethyl 4-(2,6-difluorophenyl)-1,4-dihydro-2,6-dimethylpyridine-3,5-dicarboxylate]
135 to 136 °C			COCCOC(=O)C1=C(C)NC(C)=C(C(=O)OC(C)C)C1c1cccc(F)c1F (racemic) [Example 9, (±) isopropyl 2-methoxyethyl 4-(2,3-difluorophenyl)-1,4-dihydro-2,6-dimethylpyridine-3,5-dicarboxylate]
79 to 89 °C	72 nM	10	COCCOC(=O)C1=C(C)NC(C)=C(C(=O)OC(C)C)C1c1cc(Cl)ccc1Cl (racemic) [Example 12, (±) isopropyl 2-methoxyethyl 4-(2,5-dichlorophenyl)-1,4-dihydro-2,6-dimethylpyridine-3,5-dicarboxylate]
	11.3 nM	5.7	COCCOC(=O)C1=C(C)NC(C)=C(C(=O)OC(C)C)C1c1cccc(Cl)c1C#N (racemic) [Example 15, (±) isopropyl 2-methoxyethyl 4-(3-chloro-2-cyanophenyl)-1,4-dihydro-2,6-dimethylpyridine-3,5-dicarboxylate]
78 °C	28 nM	3.4	COCCOC(=O)C1=C(C)NC(C)=C(C(=O)OC(C)C)C1c1ccc(F)c(F)c1 (racemic) [Example 18]
140 to 142 °C			COCCOC(=O)C1=C(C)NC(C)=C(C(=O)OC(C)C)C1c1cccc(C(F)(F)F)c1F (racemic) [Example 27, (±) isopropyl 2-methoxyethyl 4-(2-fluoro-3-trifluoromethylphenyl)-1,4-dihydro-2,6-dimethylpyridine-3,5-dicarboxylate]
119 to 120 °C	8 nM	4.7	COCCOC(=O)C1=C(C)NC(C)=C(C(=O)OC2CCCC2)C1c1cccc(C#N)c1Cl (racemic) [Example 30, (±) cyclopentyl 2-methoxyethyl 4-(2-chloro-3-cyanophenyl)-1,4-dihydro-2,6-dimethylpyridine-3,5-dicarboxylate]
108 to 109 °C	7.9 nM	2.2	COCCOC(=O)C1=C(C)NC(C)=C(C(=O)OC(C)(C)C)C1c1cccc(C#N)c1 (racemic) [Example 33, (±) tert-butyl 2-methoxyethyl 4-(3-cyanophenyl)-1,4-dihydro-2,6-dimethylpyridine-3,5-dicarboxylate]
105 °C			COCCOC(=O)C1=C(C)NC(C)=C(C(=O)OC2CCCC2)C1c1cccc(C(F)(F)F)c1F (racemic) [Example 36, (±) cyclopentyl 2-methoxyethyl 4-(2-fluoro-3-trifluoromethylphenyl)-1,4-dihydro-2,6-dimethylpyridine-3,5-dicarboxylate]
128 °C			COCCOC(=O)C1=C(C)NC(C)=C(C(=O)OC)C1c1cccc(C(F)(F)F)c1F (racemic) [Example 39, (±) 2-methoxyethyl methyl 4-(2-fluoro-3-trifluoromethylphenyl)-1,4-dihydro-2,6-dimethylpyridine-3,5-dicarboxylate]
128 to 130 °C			COCCOC(=O)C1=C(C)NC(C)=C(C(=O)OC2CCCC2)C1c1cccc(Cl)c1C#N (racemic) [Example 46, (±) cyclopentyl 2-methoxyethyl 4-(2-cyano-3-chlorophenyl)-1,4-dihydro-2,6-dimethylpyridine-3,5-dicarboxylate]
	14 nM		COC(=O)C1=C(C)NC(C)=C(C(=O)OCCN(C)Cc2ccccc2)C1c1cccc([N+](=O)[O-])c1 (centres unmarked) [Nicardipine, nicardipine, reference compound]
	4.6 nM		COCCOC(=O)C1=C(C)NC(C)=C(C(=O)OC(C)C)C1c1cccc([N+](=O)[O-])c1 (centres unmarked) [Nimodipine, nimodipine, reference compound]
